Experimental data taken from patent publication US12448382B2, “Heterocyclic compounds for mediating tyrosine kinase 2 activity” (GUANGZHOU INNOCARE PHARMA TECH CO., LTD., priority 2019, dated 2025).
Like-named read-outs stand apart in the source and are kept apart here.

What was measured:
[1] = molecular target: T1, human recombinant JAK2 protein (Homo sapiens, UniProt O60674); assay: JAK2 Inhibition Assay (HTRF kinase assay); type: biochemical; conditions: human recombinant JAK2, 2.5 μM ATP substrate solution
T1 construct: purchased Carna Biosciences 08-045
In short: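 Recombinant human JAK2 was preincubated 15 min at room temperature with compound in buffer containing 5 mM MgCl2, 1 mM DTT and 0.01% Brij35. Substrate solution (2.5 μM ATP, 0.25 μM biotinylated TK substrate) was then added for 30 min. Phosphorylation was detected by HTRF (665/620 nm ratio; no-enzyme = 100% inhibition), and IC50 was fitted from an 8-point, 4-fold series.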

[2] = molecular target: T2, human recombinant TYK2 protein (Homo sapiens, UniProt P29597); assay: TYK2 Inhibition Assay (HTRF kinase assay); type: biochemical; conditions: human recombinant TYK2, 11.25 μM ATP substrate solution
T2 construct: purchased Carna Biosciences 08-147
T2 sequence (P29597 871-1187 limits assumed): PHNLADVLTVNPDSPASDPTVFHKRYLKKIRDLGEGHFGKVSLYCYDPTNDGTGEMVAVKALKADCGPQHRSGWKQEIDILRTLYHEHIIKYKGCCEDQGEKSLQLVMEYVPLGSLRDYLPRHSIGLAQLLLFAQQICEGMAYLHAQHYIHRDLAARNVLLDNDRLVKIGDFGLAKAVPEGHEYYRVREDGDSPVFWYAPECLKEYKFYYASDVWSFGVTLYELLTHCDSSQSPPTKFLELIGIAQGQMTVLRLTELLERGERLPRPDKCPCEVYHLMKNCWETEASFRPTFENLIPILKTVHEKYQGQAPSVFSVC
In short: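 Recombinant human TYK2 was pre-incubated 15 min at room temperature with compound, then reacted for 40 min with biotinylated tyrosine-kinase substrate and ATP (substrate solution 11.25 μM ATP, 0.5 μM substrate; 5 mM MgCl2, 0.01% Brij35). Phosphorylation was read by HTRF 665/620 ratio, normalised to no-enzyme and no-compound controls, and IC50 was fitted from 8 4-fold dilutions.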

[3] = system: IL-12-induced IFN-γ secretion in NK92 cells; assay: Inhibition of IL-12-induced IFN-γ Secretion in NK92 Cells (ELISA); type: cell-based, human; conditions: 24 hours incubation, 8 concentration points, read-out: IC50 (NK92_IL12/IFNγ)
In short: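 NK92 cells (100,000/well, IL-2-free medium) rested overnight, then treated with compound plus IL-12 for 24 h at 37 °C. Secreted IFN-γ measured in supernatant by ELISA. Inhibition normalized to unstimulated and IL-12/0.2% DMSO controls; IC50 fitted from 8 concentrations.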

T1 sequence (O60674 826-1132 limits assumed): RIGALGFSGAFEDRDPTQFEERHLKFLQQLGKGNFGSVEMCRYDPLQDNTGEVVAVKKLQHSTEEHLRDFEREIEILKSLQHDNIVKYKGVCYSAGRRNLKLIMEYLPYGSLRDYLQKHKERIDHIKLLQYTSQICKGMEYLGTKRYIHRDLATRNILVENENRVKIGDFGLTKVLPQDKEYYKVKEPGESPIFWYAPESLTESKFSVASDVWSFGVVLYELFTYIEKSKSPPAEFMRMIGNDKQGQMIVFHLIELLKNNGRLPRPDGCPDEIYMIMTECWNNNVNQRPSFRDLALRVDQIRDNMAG

Q: Which IC50 [1] does the source give for Cn1cc(Nc2ncc(Cl)c(N3C[C@@H]4CN(C(=O)C5CC5)C[C@]4(C)C3)n2)cn1 [Compound 86, ((3aS,6aR)-5-(5-chloro-2-((1-methyl-1H-pyrazol-4-yl)amino)pyrimidin-4-yl)-3a-methylhexahydropyrrolo[3,4-c]pyrrol-2(1H)-yl)(cyclopropyl)methanone] here?
A: 1.7 nM

Q: What about the IC50 [2] of the same compound?
A: 0.3 nM

Q: What about the IC50 ([3]; Homo sapiens) of the same compound?
A: 99 nM

Q: Cn1cc(Nc2ncc(Cl)c(N3C[C@H]4CN(C(=O)C5CC5)C[C@@]4(C)C3)n2)cn1 [Compound 87, ((3aR,6aS)-5-(5-chloro-2-((1-methyl-1H-pyrazol-4-yl)amino)pyrimidin-4-yl)-3a-methylhexahydropyrrolo[3,4-c]pyrrol-2(1H)-yl)(cyclopropyl)methanone] was tested. Which IC50 [1] did it give?
A: 9 nM

Q: What about the IC50 [2] of the same compound?
A: 6 nM

Q: What about the IC50 ([3]; Homo sapiens) of the same compound?
A: 959 nM

Q: How did the IC50 [1] turn out when Cn1cc(Nc2ncc(Cl)c(N3C[C@@H]4CN(C(=O)CC#N)C[C@]4(C)C3)n2)cn1 [Compound 88, 3-((3aS,6aR)-5-(5-chloro-2-((1-methyl-1H-pyrazol-4-yl)amino)pyrimidin-4-yl)-3a-methylhexahydropyrrolo[3,4-c]pyrrol-2(1H)-yl)-3-oxopropanenitrile] was run?
A: 0.5 nM

Q: And the IC50 [2]?
A: 0.2 nM

Q: And the IC50 ([3]; Homo sapiens)?
A: 67 nM

Q: How did the IC50 [1] turn out when Cn1cc(Nc2ncc(Cl)c(N3C[C@H]4CN(C(=O)CC#N)C[C@@]4(C)C3)n2)cn1 [Compound 89, 3-((3aR,6aS)-5-(5-chloro-2-((1-methyl-1H-pyrazol-4-yl)amino)pyrimidin-4-yl)-3a-methylhexahydropyrrolo[3,4-c]pyrrol-2(1H)-yl)-3-oxopropanenitrile] was run?
A: 4.5 nM

Q: And the IC50 [2]?
A: 2.6 nM

Q: And the IC50 ([3]; Homo sapiens)?
A: 729 nM

Q: Which results are given for Cn1cc(Nc2ncc(Cl)c(N3C[C@@H]4CN(C(=O)[C@@H]5CC5(F)F)C[C@]4(C)C3)n2)cn1 [Compound 90]?
A: IC50 [1]: 0.6 nM; IC50 [2]: 0.1 nM; IC50 ([3]; Homo sapiens): 96 nM

Q: Which IC50 [1] does the source give for Cn1cc(Nc2ncc(Cl)c(N3C[C@H]4CN(C(=O)[C@@H]5CC5(F)F)C[C@@]4(C)C3)n2)cn1 [Compound 91, ((3aR,6aS)-5-(5-chloro-2-((1-methyl-1H-pyrazol-4-yl)amino)pyrimidin-4-yl)-3a-methylhexahydropyrrolo[3,4-c]pyrrol-2(1H)-yl)((S)-2,2-difluorocyclopropyl)methanone] here?
A: 2.6 nM

Q: And the IC50 [2]?
A: 3.2 nM

Q: What about the IC50 ([3]; Homo sapiens) of the same compound?
A: 388 nM

Q: For C[C@@]12CN(C(=O)C3CC3)C[C@]1(C)CN(c1nc(Nc3cc[nH]n3)ncc1Cl)C2 [Compound 95, ((3aR,6aS)-5-(2-((1H-pyrazol-3-yl)amino)-5-chloropyrimidin-4-yl)-3a,6a-dimethylhexahydropyrrolo-[3,4-c]pyrrol-2(1H)-yl)(cyclopropyl)methanone], which IC50 [1] is on record?
A: 19 nM

Q: What about the IC50 [2] of the same compound?
A: 42 nM

Q: And the IC50 ([3]; Homo sapiens)?
A: 5850 nM

Q: For C[C@]12CN(C(=O)CC#N)C[C@H]1CN(c1nc(Nc3cn[nH]c3)ncc1Cl)C2 [Compound 98, 3-((3aS,6aR)-5-(2-((1H-pyrazol-4-yl)amino)-5-chloropyrimidin-4-yl)-3a-methylhexahydropyrrolo[3,4-c]pyrrol-2(1H)-yl)-3-oxopropanenitrile], which IC50 [1] is on record?
A: 0.7 nM

Q: And the IC50 [2]?
A: 0.1 nM

Q: And the IC50 ([3]; Homo sapiens)?
A: 516 nM

Q: Which IC50 [1] does the source give for [2H]C([2H])([2H])n1cc(Nc2ncc(Cl)c(N3C[C@@H]4CN(C(=O)CC#N)C[C@]4(C)C3)n2)cn1 [Compound 99, 3-((3aS,6aR)-5-(5-chloro-2-((1-(methyl-d3)-1H-pyrazol-4-yl)amino)pyrimidin-4-yl)-3a-methylhexahydropyrrolo[3,4-c]pyrrol-2(1H)-yl)-3-oxopropanenitrile] here?
A: 0.5 nM

Q: And the IC50 [2]?
A: 0.1 nM

Q: What about the IC50 ([3]; Homo sapiens) of the same compound?
A: 158 nM

Q: “cyclopropyl((3aR,6aS)-3a,6a-dimethyl-5-(5-methyl-2((1-methyl-1H-pyrazol-4-yl)amino)pyriraidin-4-yl)hexahydropyrrolo[3,4-c]pyrrol-2(1H)-yl)methanone [Compound 24]” was tested. Which IC50 [1] did it give?
A: 20 nM

Q: And the IC50 [2]?
A: 4.1 nM

Q: What about the IC50 [3] of the same compound?
A: 1070 nM
